Data as given in patent publication US5079257A, “Indoloquinone compounds” (priority 1986, dated 1992).
Values after ≈ are worked out from the molar mass of the structure shown. Read-outs that look alike come from different tables or passages of the source.

How the values were obtained:
[1] = tested on: R-1 cells (Rhabdomyosarcoma Cells); assay: R-1 activity (bioliquid assay), cytotoxicity; type: cell-based; details: Rhabdomyosarcoma cell
Outline: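 Rhabdomyosarcoma R-1 cells (~10^6 per dish) in Dulbecco's medium with 10% FCS were exposed to drug solution, which was then replaced by fresh medium. Cells were trypsinized after 48 hours and counted electronically.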

L1210 cells = assay: Lowest active dose (L1210; bioliquid assay); type: cell-based; details: Mus musculus
Description: The indoloquinones II (formula II) have been tested in respect of their cytotoxic activity against L1210 cells and R-1 cells (Rhabdomyosarcoma Cells) in a bioliquid assay at the department of oncology of the Free University of Amsterdam (Table I). In addition to this seven compounds (E.O. 1, E.O. 2, E.O. 4, E.O. 7, E.O. 9, E.O. 16 and E.O. 17) have been tested on L1210 activity in a clonogenic assay at TNO, Rijswijk. Further, the lowest active doses of the compounds E.O. 1, E.O. 2, E.O. 4 and E.O. 9 have been determined at TNO Rijswijk, according to the method described by Lamberts et al. [Oncology, 40, 301 (1983)]. (Table II). Eight indoloquinones (E.O. 1, E.O. 2, E.O. 4, E.O. 4A, E.O. 8, E.O. 9, E.O. 33 and E.O. 35) have been tested in a panel of five human tumour lines (TNO Rijswijk; Table III). From the latter group three indoloquinones (E.O. 1, E.O. 4 and E.O. 9) have been selected for a cytotoxicity study, involving five slowly growing human tumour lines (University of Freiburg; Table IV).
The lowest active doses for the compounds E.O. 1, E.O. 2, E.O. 4 and E.O. 9 were determined according to the method described by Lamberts et al. [Oncology, 40, 301 (1983)]. In this method, L1210 cells were grown in a series of wells in a culture medium and in the presence of the compound to be tested, as in the determination of L1210 activity in a bioliquid assay reported above, but the compound was present in respective wells in a different concentration, the concentrations extending over an appropriate range. After a suitable incubation period, the lowest active dose for the compound in question was determined by comparing the diameter of each of the precipitation spots with that of a control containing only the culture and the cell suspension, a smaller diameter indicating growth inhibition (Table II).

Colon 1 tumour line = assay: Colony inhibition in vitro, continuous drug exposure (Freiburg); type: cell-based; details: Homo sapiens, read-out: colony formation treated/control (T/C), Colon 1; for activity at 1 µg/mL: 1.0 μg/ml
Description: (§1) Three indoloquinones were tested at the University of Freiburg with respect to their in vitro inhibition of colony formation of the following five human tumour cell lines: lung-NSCLC, breast, renal and two colon lines.

Colon 2 tumour line = assay: as above; type: cell-based; details: Homo sapiens, read-out: colony formation treated/control (T/C), Colon 2; for activity at 1 µg/mL: 1.0 μg/ml
Description: as §1

[2] = tested on: Mammary (breast) tumour line; assay: as above; type: cell-based; details: Homo sapiens, read-out: colony formation treated/control (T/C), Mammary; for activity at 1 µg/mL: 1.0 μg/ml
Description: as §1

Renal tumour line = assay: as above; type: cell-based; details: Homo sapiens, read-out: colony formation treated/control (T/C), Renal; for activity at 1 µg/mL: 1.0 μg/ml
Description: as §1

[3] = Half-wave reduction potentials / polarography (University of Utrecht); type: physicochemical
Outline: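 Polarographic half-wave potentials (E1/2) measured; only the first, quinone, reduction potential is reported.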

P 388 tumour cells = assay: In vivo P388 experiments (Brussels); set-up: species or system mice; details: for MAX T/C: days 1 to 5
Description: These experiments were carried out at the Institute Jules Bordet, Brussels, on CDF, female mice. The mice were inoculated intraperitoneally (IP) with 1×10^6 P 388 tumour cells. After 24 hours, the compounds were administrated as suspensions in "Tween-80" or using saline as vehicle. Six mice were used at each dose of the compound, given on days 1 to 5 and eighteen control mice were injected with saline.

Lung-NSCLC (LXFG) line = assay: Human tumour xenograft in nude mice: lung; type: in vivo; details: i.v. days 14 and 21, 4 and 6 mg/kg
Description: (§2) Based on the results obtained during the in vitro experiments indoloquinone E.O. 9 was selected for an extended in vivo study. The activity of this compound has been determined in four human tumour xenografts transplanted in nude mice.
(§3) The xenograft experiments have been carried by Dr. H. H. Fiebig of the University of Freiburg [Lung-NSCLC (LXGF) line, Renal line, Breast line; See: H. H. Fiebig et al., Behring Inst. Mitt., 74 343] and by Dr. E. Boven of the Free University Hospital Amsterdam [Ovarian (MRI-H-207) line; See: E. Boven et al., Cancer Res., 45, 86 (1985) and E. Boven et al., Eur. J. Clin. Oncol., 21, 1253 (1985)].
The tumour was transplanted s.c. and E.O. 9 was administrated i.v. on days 14 and 21 after transplantation at a dose of 4 and 6 mg/kg.

Renal line (RXF 423) = assay: Human tumour xenograft in nude mice: renal; type: in vivo; details: i.v. days 22 and 29, 4 and 6 mg/kg
Description: as §2, §3
The tumour was transplanted s.c. and E.O. 9 was administrated i.v. on days 22 and 29 after transplantation at a dose of 4 and 6 mg/kg.

[4] = Table I, bioliquid assay, read-out: ID-50 R-1
[5] = L1210, bioliquid assay, duplicate experiment, read-out: LAD 2 (lowest active dose)
[6] = L1210, bioliquid assay, read-out: LAD 1 (lowest active dose)

| Compound | IC50 [1, 4] | minimal effective concentration (L1210 cells; [5]) | minimal effective concentration (L1210 cells; [6]) | activity at 0.01 µg/mL (Colon 1 tumour line; 0.01 μg/ml) | activity at 0.1 µg/mL (Colon 1 tumour line; 0.1 μg/ml) | activity at 1 µg/mL (Colon 1 tumour line) | activity at 0.01 µg/mL (Colon 2 tumour line; 0.01 μg/ml) | activity at 0.1 µg/mL (Colon 2 tumour line; 0.1 μg/ml) | activity at 1 µg/mL (Colon 2 tumour line) | activity at 0.01 µg/mL ([2]; 0.01 μg/ml) | activity at 0.1 µg/mL ([2]; 0.1 μg/ml) | activity at 1 µg/mL [2] | activity at 0.1 µg/mL (Renal tumour line; 0.1 μg/ml) | activity at 1 µg/mL (Renal tumour line) | half-wave potential E1.2, wave I ([3]; pH = 8 vs Ag/AgCl) | MAX T/C (P 388 tumour cells; 10 mg/kg) | other results |
| --- | --- | --- | --- | --- | --- | --- | --- | --- | --- | --- | --- | --- | --- | --- | --- | --- | --- |
| Cn1c(/C=C/CO)c(CO)c2c1C(=O)C=C(N1CC1)C2=O [E.O. 9, 5-Aziridino-3-hydroxymethyl-1-methyl-2-[1H-indole-4,7-dione]prop-β-en-α-ol] | 0.003 µg/mL (≈ 0.0104 µM) | 1.02 µg/mL | 0.512 to 1.02 µg/mL | 51% | 47% | 9% | 136% | 20% | 1% | 38% | 2% | 0% | 8% | 0% | -370 mV | – | IC50 ([1]; Table VIII, read-out: ID-50 R-1): 0.0034 µg/mL (≈ 0.0118 µM); activity at 0.01 µg/mL (Renal tumour line; 0.01 μg/ml): 123%; half-wave potential E1.2, wave II ([3]; pH = 8 vs Ag/AgCl): -785 mV; MAX T/C (P 388 tumour cells; 1.5 mg/kg): 106%; optimal growth inhibition (Lung-NSCLC (LXFG) line): 42%; specific growth delay (Lung-NSCLC (LXFG) line): 1.03; growth inhibition (Renal line (RXF 423)): No significant growth inhibition |
| COC(=O)OC/C=C/c1c(COC(=O)OC)c2c(n1C)C(=O)C=C(OC)C2=O [E.O. 2, Methyl 5-methoxy-3-methoxycarbonyloxymethyl-1-methyl-2-[1H-indole-4,7 dione]prop-β-en-α-yl carbonate] | 0.4 µg/mL (≈ 1.02 µM) | 1.02 to 2.05 µg/mL | 1.02 to 2.05 µg/mL | – | – | – | – | – | – | – | – | – | – | – | – | 120% | – |
| CC(=O)OC/C=C/c1c(COC(C)=O)c2c(n1C)C(=O)C=C(N1CC1)C2=O [E.O. 4, 3-Acetoxymethyl-5-aziridino-1-methyl-2-[1H-indole-4,7-dione]prop-β-en-α-yl acetate] | – | – | – | – | – | – | – | – | – | – | – | – | – | – | – | 135% | IC50 ([1]; read-out: ID-50 R-1, Table VIII): 0.025 µg/mL; minimal effective concentration (L1210 cells; L1210, read-out: LAD 1 (lowest active dose)): 0.032 to 0.064 µg/mL; minimal effective concentration (L1210 cells; L1210, read-out: LAD 2 (lowest active dose)): 0.064 µg/mL; activity at 0.001 µg/mL (Colon 1 tumour line): 51%; activity at 0.01 µg/mL (Colon 1 tumour line): 56%; activity at 0.1 µg/mL (Colon 1 tumour line): 56%; activity at 0.001 µg/mL (Colon 2 tumour line): 86%; activity at 0.01 µg/mL (Colon 2 tumour line): 70%; activity at 0.1 µg/mL (Colon 2 tumour line): 11%; activity at 0.001 µg/mL [2]: 95%; activity at 0.01 µg/mL [2]: 46%; activity at 0.1 µg/mL [2]: 0%; activity at 0.001 µg/mL (Renal tumour line): 88%; activity at 0.01 µg/mL (Renal tumour line): 88%; activity at 0.1 µg/mL (Renal tumour line): 41%; T/C at the optimal dose (P 388 tumour cells; optimal dose): ~130% |
| COC1=CC(=O)c2c(c(COC(C)=O)c(/C=C/COC(C)=O)n2C)C1=O [E.O. 1, 3-Acetoxymethyl-5-methoxy-1-methyl-2-[1H-indole-4,7-dione]prop-β-en-α-yl acetate] | 2.3 µg/mL | 1.02 to 2.05 µg/mL | 1.02 to 2.05 µg/mL | 108% | 37% | 21% | 71% | 24% | 3% | 99% | 0% | 0% | 68% | 0% | -367 mV | – | IC50 ([1]; Table VI, read-out: ID-50 R-1): 0.3 µg/mL; direct current polarogram ([3]; DC-polarography): two or more reduction waves; half-wave potential E1.2, wave III ([3]; pH = 8 vs Ag/AgCl): -435 mV; half-wave potential E1.2, wave IV ([3]; pH = 8 vs Ag/AgCl): -775 mV; MAX T/C (P 388 tumour cells; 75 mg/kg): 105% |
